Read-outs that look alike come from different tables or passages of the source.
Columns and labels:
[1] = compared with racemate; devices/gels of Table 4
Experimental: The drug/permeation enhancer reservoir was prepared by mixing, depending on the formulation, either ethylene vinyl acetate copolymer having a vinyl acetate content of 40 percent ("EVA 40", U.S.I. Chemicals, Illinois) or mineral oil and petrolatum in an internal mixer (Bra Bender type mixer) until the EVA 40 pellets fused. Oxybutynin, glycerol monolaurate and lauryl lactate were then added.
When EVA 40 was used the mixture was blended, cooled and calendered to a 5 mil thick film. This film was then laminated to an acrylic contact adhesive (MSP041991P, 3M) on one side and Medpar® backing (3M) on the opposite side. The laminate was then cut into 2.54 cm^2 circles using a stainless steel punch. Circular pieces of human-epidermis were mounted on horizontal permeation cells with the stratum corneum facing the donor compartment of the cell. The release liner of the system was then removed and the system was centered over the stratum corneum side of the epidermis. A known volume of the receptor solution (0.05M sodium phosphate buffer at pH 6) that had been equilibrated at 35° C. was placed in the receptor compartment. Air bubbles were removed; the cell was capped and placed in a water bath-shaker at 35° C.
When the mineral oil/petrolatum was used, the mixture, containing the drug and permeation enhancers, was blended/mixed and then poured into the donor side of a two-side diffusion cell. […]

[2] = Solubility of glycerol monolaurate in lauryl lactate / EVA 40; format: physicochemical; conditions: for Wt % GML in solution (free GML): based on GML solubility of 350 mg/g
Excerpt: The unexpected effects of the specific weight percentages of the components of the permeation enhancer mixture are believed to be due, in part, to the solubility of the monoglyceride in the lactic acid ester. It is known that monoglycerides by themselves are effective permeation enhancers. The enhancement occurs by the solubilization of the monoglyceride in the lipid layer of the skin. The solubilization of the monoglyceride in the lipid layer increases as a function of lactic acid ester concentration. […] Thus, the amount of GML dissolved, ie, free GML, is dictated by and proportional to the lauryl lactate loading in the polymer.

[3] = format: in vivo, human; conditions: transdermal, coadministered with the permeation enhancing mixture
Experimental: Representative skin permeation rates of oxybutynin through living human skin are in the range of about 5 μg/cm^2 ·hr to about 15 μg/cm^2 ·hr. Therapeutic blood levels can be achieved within approximately 6-10 hours after the initial application, and blood concentrations are maintained with subsequent system applications. The range of desired and achievable system permeation rates of oxybutynin, arriving through the skin from a limited area, is 1-20 mg over a period of 24 hours. The system application is easily adapted for shorter or longer duration treatments, but generally 72 hours is the duration for a single application.

[4] = 25 mg/mL aqueous oxybutynin, 20 μm polybutadiene film, 0.05M isotonic phosphate buffer, cited from earlier work

CCN(CC)CC#CCOC(=O)[C@](O)(c1ccccc1)C1CCCCC1 [R-oxybutynin]
flux of R- or S-oxybutynin relative to the racemate [1]: approximately equivalent to that of the racemate

CCCCCCCCCCCC(=O)OCC(O)CO (centres unmarked) [glycerol monolaurate]
Wt % GML in solution (free GML) ([2]; 12% lauryl lactate in EVA 40): 4.2%
Wt % GML in solution (free GML) ([2]; 20% lauryl lactate in EVA 40): 7.0%
Wt % GML in solution (free GML) ([2]; 27% lauryl lactate in EVA 40): 9.5%
Wt % GML in solution (free GML) ([2]; 30% lauryl lactate in EVA 40): 10.5%
solubility in EVA 40 matrix ([2]; in an EVA 40 matrix): practically insoluble
solubility of glycerol monolaurate in lauryl lactate ([2]; in lauryl lactate, solution stirred): 350 mg/g of solution

CCN(CC)CC#CCOC(=O)C(O)(c1ccccc1)C1CCCCC1 (centres unmarked) [oxybutynin]
time to therapeutic blood levels after the initial application [3]: 6 to 10 h
in vitro release rate ([4]; per area): ~10 μg/cm^2 ·hr
in vitro release rate ([4]; through 49 cm^2 area): approximately 12 mg over 24 hours

CCN(CC)CC#CCOC(=O)[C@@](O)(c1ccccc1)C1CCCCC1 [S-oxybutynin]
flux of R- or S-oxybutynin relative to the racemate [1]: approximately equivalent to that of the racemate
